Here are results for 5 compounds from patent publication US20260217683A1, “PYRIDAZINONE HETEROCYCLIC COMPOUND MYOSIN II INHIBITOR AND USE THEREOF” (Xizang Haisco Pharmaceutical Co., Ltd., priority 2023, published 2026).

One data set concerns the target T1, smooth muscle myosin S1 (Gallus gallus, UniProt P10587).
T1 construct: purchased Cytoskeleton #CS-MYS05
Description: Inhibition of hydrolysis of ATP by smooth muscle myosin S1 fragments. The format is biochemical. The note with it: 100 μM compound. Put shortly: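 Smooth muscle myosin S1 fragment (0.7 mg/mL in PM12 buffer with 1 mM DTT) was mixed with compound and F-actin polymer prepared from cardiac actin, then 5 mM ATP working solution started the reaction at 37° C. for 20 min. Released Pi was measured with CytoPhos reagent at 650 nm against a standard curve, and inhibition was calculated relative to positive control wells.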

Data set [1] has as its target T2, hERG potassium ion channel (Homo sapiens, UniProt Q12809).
T2 construct: expressed in transfected cells
Kind of data set: Effect on hERG potassium ion channel (manual patch-clamp, CHO cells). The format is cell-based. The note with it: CHO cells stably expressing hERG, whole cell patch-clamp; read-out: IC50 of the inhibitory effect on hERG potassium channel current. An excerpt: 1. Experimental platform: electrophysiological manual patch-clamp system
2. Cell line: Chinese hamster ovary (CH—O) cell lines stably expressing hERG potassium ion channel
3. Experimental method: in CHO (Chinese Hamster Ovary) cells stably expressing hERG potassium channel, whole cell patch-clamp technique was used to record hERG potassium channel current at room temperature. The glass microelectrode was made of a glass electrode blank (BF150-86-10, Sutter) by a puller. The tip resistance after filling the liquid in the electrode was about 2-5 MQ. The glass microelectrode can be connected to the patch-clamp amplifier by inserting the glass microelectrode into an amplifier probe. The clamping voltage and data recording were controlled and recorded by the pClamp 10 software through a computer. The sampling frequency was 10 kHz, and the filtering frequency was 2 kHz. After the whole cell records were obtained, the cells were clamped at −80 mV, and the step voltage that induced the hERG potassium current (IhERG) was depolarized from −80 mV to +20 mV for 2 s, then repolarized to −50 mV, and returned to −80 mV after 1 s. This voltage stimulation was given every 10 s, and the administration process was started after the hERG potassium current was confirmed to be stable (at least 1 minute). The compound was administered for at least 1 minute at each test concentration, and at least 2 cells (n≥2) were tested at each concentration.
4. Data processing: Data analysis processing was carried out by using pClamp 10, GraphPad Prism 5 and Excel software. The inhibition degree of hERG potassium current (peak value of hERG tail current induced at −50 mV) at different compound concentrations was calculated by the following formula:
[formula] • where Inhibition % represents the percentage of inhibition of hERG potassium current by the compound, and I and Io represent the amplitude of hERG potassium current after and before the administration, respectively.
Compound IC50 was calculated using GraphPad Prism 5 software by fitting according to the following equation: […]
Among the equation, X represents the Log value of the tested concentration of the test sample, Y represents the inhibition percentage at the corresponding concentration, and Bottom and Top represent the minimum and maximum inhibition percentage, respectively.

Data set [2] relates to rabbit skeletal muscle myosin. Kind of data set: Inhibition of hydrolysis of ATP by rabbit skeletal muscle myosin. It is filed as biochemical. Put shortly: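 Actin-activated ATPase: F-actin plus rabbit skeletal myosin II with compound in Tris-HCl pH 7.5/KCl/EGTA/MgCl2, started with ATP (3 mM working stock) and run 60 min at 37 °C. Released Pi measured by CytoPhos absorbance at 650 nm against a phosphate standard curve; IC50 fitted from inhibition relative to uninhibited myosin.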

The target of another data set is T3, cardiac myosin SII (Bos taurus, UniProt Q9BE39).
T3 construct: purchased Cytoskeleton #MYO3-A
Kind of data set: Inhibition of hydrolysis of ATP by cardiac myosin SII. It is filed as biochemical. Conditions: 100 μM compound. Put shortly: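 Bovine cardiac myosin with preformed F-actin in 15 mM Tris-HCl pH 7.5, 10 mM KCl, 2 mM MgCl2, 0.1 mM EGTA; compounds at 100 μM final, ATP from 3 mM working solution, 2 h at 37 °C. Released Pi measured colorimetrically at 650 nm against a Pi standard curve; % inhibition vs. DMSO control.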

The nature of data set [3]: Pharmacokinetic experiment in mice. The format is in vivo. Conditions: male, C57, po; mouse plasma, i.g. (10 mg/kg). The protocol: (§1) 1. Experimental animals: Male C57 mice, 22-25 g, 6 mice/compound. Purchased from Chengdu Ddossy Experimental Animals Co., Ltd.
2. Experimental design: On the day of the experiment, 12 C57 mice were randomly grouped according to their body weight. The animals were fasted with water available for 12 to 14 h one day before the administration and were fed 4 h after the administration.
Before and after the administration, 0.06 mL of blood was taken from the orbit of the animals under isoflurane anesthesia and placed in an EDTAK2 centrifuge tube. The blood was centrifuged at 5000 rpm and 4° C. for 10 min to collect the plasma. The blood collection time points for the intravenous group and intragastric administration group were: 0 m, 5 m, 15 min, 30 min, 1 h, 2 h, 4 h, 7 h and 24 h. Before analysis and detection, all samples were stored at −80° C., and a quantitative analysis of samples was performed using LC-MS/MS.

The target of another data set is T4, CYP2C19 (Homo sapiens, UniProt P33261).
T4 construct: incubated with human liver microsomes and test compounds of different concentrations; from tissue; host or cells: human liver microsomes
Description: CYP450 enzyme inhibition, human liver microsomes, CYP2C19. It is filed as in vitro ADME. The protocol: (§2) The purpose of this study was to evaluate the effect of the test compound on the activity of five isoenzymes (CYP1A2, CYP2C9, CYP2C19, CYP2D6 and CYP3A4) of human liver microsomal cytochrome P450 (CYP) by using an in vitro testing system. The specific probe substrates of CYP450 isoenzymes were incubated with human liver microsomes and test compounds of different concentrations, and reduced nicotinamide adenine dinucleotide phosphate (NADPH) was added to initiate the reaction. After the completion of the reaction, the sample was treated and liquid chromatography-tandem mass spectrometry (LC-MS/MS) was used to quantitatively detect metabolites produced by specific substrates, changes in CYP enzyme activity were determined, and IC50 value was calculated to evaluate the inhibitory potential of the test compound on each CYP enzyme subtype.
A general note: Liver microsomes are a subcellular fraction often used to study metabolism.

Another data set concerns the target T5, CYP3A4 (Homo sapiens, UniProt P08684).
T5 construct: incubated with human liver microsomes and test compounds of different concentrations; from tissue; host or cells: human liver microsomes
Description: CYP450 enzyme inhibition, human liver microsomes, CYP3A4. The format is in vitro ADME. Here is the method:
as §2

A further data set deals with T6, CYP1A2 (Homo sapiens, UniProt P05177).
T6 construct: incubated with human liver microsomes and test compounds of different concentrations; from tissue; host or cells: human liver microsomes
T6 sequence (P05177 1-516): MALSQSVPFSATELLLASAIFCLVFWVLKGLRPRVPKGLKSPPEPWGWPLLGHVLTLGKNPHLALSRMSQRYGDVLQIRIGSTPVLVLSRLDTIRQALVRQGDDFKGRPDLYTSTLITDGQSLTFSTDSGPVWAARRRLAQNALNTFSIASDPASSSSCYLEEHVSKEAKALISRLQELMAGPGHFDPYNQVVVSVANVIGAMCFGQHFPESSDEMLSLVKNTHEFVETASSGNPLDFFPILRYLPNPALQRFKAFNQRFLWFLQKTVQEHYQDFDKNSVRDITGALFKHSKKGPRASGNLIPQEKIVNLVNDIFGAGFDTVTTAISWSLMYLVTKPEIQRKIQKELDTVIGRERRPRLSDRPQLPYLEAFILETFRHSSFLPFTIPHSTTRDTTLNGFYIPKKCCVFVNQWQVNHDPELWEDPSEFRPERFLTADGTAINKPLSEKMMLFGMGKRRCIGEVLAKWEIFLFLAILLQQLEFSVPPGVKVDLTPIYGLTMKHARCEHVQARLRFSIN
Description: CYP450 enzyme inhibition, human liver microsomes, CYP1A2. The format is in vitro ADME. The protocol: as §2

Another data set has as its target T7, CYP2D6 (Homo sapiens, UniProt P10635).
T7 construct: incubated with human liver microsomes and test compounds of different concentrations; from tissue; host or cells: human liver microsomes
Kind of data set: CYP450 enzyme inhibition, human liver microsomes, CYP2D6. The format is in vitro ADME. Here is the method: as §2

In another data set the target is T8, CYP2C9 (Homo sapiens, UniProt P11712).
T8 construct: incubated with human liver microsomes and test compounds of different concentrations; from tissue; host or cells: human liver microsomes
Kind of data set: CYP450 enzyme inhibition, human liver microsomes, CYP2C9. It is filed as in vitro ADME. Here is the method:
as §2

The next data set relates to B10-Dmd-KO (Mdx) mice. Kind of data set: PK/PD detection of mouse model with Dmd (Mdx) gene mutation, plasma CK. Conditions: 10 mpk single administration, oral. The format is in vivo. The source says:
Experimental objective: Bl0-Dmd-KO (Mdx) mice are DMD function-deficient mice caused by frameshift mutations in the Dmd gene. […] This study has investigated the effects on CK and TNNI2 in the plasma of Mdx mice upon administration of compounds.
Experimental animal: B10-Dmd-KO (C57BL/10ScSnJGpt-Dmdem3Cd4/Gpt), male, 5-7 weeks old, weight 28-30 g, supplier. Gempharmatech Co., Ltd.;
• 1) Running training (D-5): Mdx mice underwent running training in batches. The training parameters were set as three time periods, i.e., the initial speed of 4 m/min for 2 min, then 8 m/min for 8 min, and finally 12 m/min for 30 min, a total of 40 min; • 2) Gripping strength test (D-2): each round was measured three times, and three rounds were performed; • 3) Grouping (DO): the animals were anesthetized by inhalation of isoflurane (concentration: 5%, gas flow rate: 1 L/min), and then a capillary tube was used to collect blood (about 150 μL) via orbital venous sinus into a 0.6 mL centrifuge tube containing EDTA anticoagulant, the plasma wad separated, and the CK value was detected, which was used as the basic value for grouping; • 4) Administration, grasping, and blood collection (D1): The compounds were dissolved in the vehicle 5% DMA+5% HS-15+90% Saline, then orally administered to the mice, and then the grip strength test was conducted (three tests per round for three rounds). […] A capillary tube was used to collect blood (>300 μL) via orbital venous sinus into a 0.6 mL centrifuge tube containing EDTA anticoagulant, and then the animals were euthanized to collect the tibialis anterior muscle (left leg), soleus muscle (both legs) and cardiac muscle, which were weighed and recorded, placed in a homogenization tube and quickly frozen in liquid nitrogen, then stored at −80° C.
Sample processing: After the whole blood anticoagulated with EDTA was centrifuged at 3000 rpm and 4° C. for 10 min, the […] was collected and subpackaged. The separated […] was subjected to a biochemical analyzer (Fully automatic biochemical analyzer Roche C311) to detect the CK value and TNN12 value (Mouse TNNI2 Elisa Kit, ABBEXA, E2207370Y); The […] concentration of the compound and the drug concentration in tibialis anterior muscle, soleus muscle and cardiac muscle were measured by LC/MS instrument.

Data set [4] is described as follows: Pharmacokinetic experiment in mouse muscle tissue (tibialis anterior / plasma). The format is in vivo, C57 mice. Conditions: male, C57, tibialis anterior muscle / plasma, oral, intragastric 10 mg/kg, read-out: Ratio = Tibialis anterior Conc./Plasma Conc. The protocol: as §1
2. Experimental design: On the day of the experiment, C57 mice were randomly grouped according to their body weight. The animals were fasted with water available for 12 to 14 h one day before the administration and were fed 4 h after the administration. Administration was performed as per Table 10.1.

The mark [5] stands for this setting: inhibition of hydrolysis of ATP, class symbols, read-out: Rabbit skeletal muscle myosin (IC50).
Where [6] appears, read: read-out: IC50 for inhibition of hydrolysis of ATP by rabbit skeletal muscle myosin.

Read-outs that look alike come from different tables or passages of the source. Bounds are passed on as bounds.

The inhibition is the drop in the measured response relative to a control, in per cent. As a reminder, the IC50 is the concentration that inhibits the measured activity by half. In general, AUC(0-t) refers to exposure summed from dosing to a finite time, without extrapolation to infinity. Higher therefore signals high exposure. The Cmax is the maximum level reached in the sampled fluid or tissue. One may read the half-life as how long it takes for the measured level to halve. Higher therefore signals slow loss.

T2 sequence (Q12809 whole entry): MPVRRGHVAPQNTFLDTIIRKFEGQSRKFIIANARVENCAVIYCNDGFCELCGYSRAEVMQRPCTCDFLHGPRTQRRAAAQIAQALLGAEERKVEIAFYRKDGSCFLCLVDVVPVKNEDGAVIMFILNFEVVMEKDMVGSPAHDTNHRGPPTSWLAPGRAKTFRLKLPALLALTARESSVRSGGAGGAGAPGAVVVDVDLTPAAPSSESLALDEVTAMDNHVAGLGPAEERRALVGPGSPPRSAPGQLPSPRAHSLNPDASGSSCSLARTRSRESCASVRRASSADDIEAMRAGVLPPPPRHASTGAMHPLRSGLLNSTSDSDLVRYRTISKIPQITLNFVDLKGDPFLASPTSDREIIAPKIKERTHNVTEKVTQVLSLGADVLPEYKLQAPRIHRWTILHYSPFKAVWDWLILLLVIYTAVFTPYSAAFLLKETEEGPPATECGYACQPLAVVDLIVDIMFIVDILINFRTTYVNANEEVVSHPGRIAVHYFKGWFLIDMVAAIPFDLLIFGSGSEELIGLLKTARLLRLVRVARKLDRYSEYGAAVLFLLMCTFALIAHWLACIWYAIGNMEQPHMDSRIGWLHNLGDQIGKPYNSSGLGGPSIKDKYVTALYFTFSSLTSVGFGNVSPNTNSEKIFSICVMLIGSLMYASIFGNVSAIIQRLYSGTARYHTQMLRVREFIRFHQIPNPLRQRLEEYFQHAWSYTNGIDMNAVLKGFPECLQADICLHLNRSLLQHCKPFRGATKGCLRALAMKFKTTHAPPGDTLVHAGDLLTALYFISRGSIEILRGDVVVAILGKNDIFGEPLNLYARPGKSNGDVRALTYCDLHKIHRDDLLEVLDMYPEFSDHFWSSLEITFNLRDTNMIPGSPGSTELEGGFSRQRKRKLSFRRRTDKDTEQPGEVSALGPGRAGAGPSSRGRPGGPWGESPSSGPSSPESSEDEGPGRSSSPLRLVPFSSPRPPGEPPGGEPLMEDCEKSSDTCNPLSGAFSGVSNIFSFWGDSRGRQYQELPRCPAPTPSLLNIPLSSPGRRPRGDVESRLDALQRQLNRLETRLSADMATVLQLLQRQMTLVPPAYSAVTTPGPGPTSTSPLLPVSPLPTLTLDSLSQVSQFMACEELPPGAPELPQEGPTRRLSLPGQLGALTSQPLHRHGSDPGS
T3 sequence (Q9BE39 whole entry): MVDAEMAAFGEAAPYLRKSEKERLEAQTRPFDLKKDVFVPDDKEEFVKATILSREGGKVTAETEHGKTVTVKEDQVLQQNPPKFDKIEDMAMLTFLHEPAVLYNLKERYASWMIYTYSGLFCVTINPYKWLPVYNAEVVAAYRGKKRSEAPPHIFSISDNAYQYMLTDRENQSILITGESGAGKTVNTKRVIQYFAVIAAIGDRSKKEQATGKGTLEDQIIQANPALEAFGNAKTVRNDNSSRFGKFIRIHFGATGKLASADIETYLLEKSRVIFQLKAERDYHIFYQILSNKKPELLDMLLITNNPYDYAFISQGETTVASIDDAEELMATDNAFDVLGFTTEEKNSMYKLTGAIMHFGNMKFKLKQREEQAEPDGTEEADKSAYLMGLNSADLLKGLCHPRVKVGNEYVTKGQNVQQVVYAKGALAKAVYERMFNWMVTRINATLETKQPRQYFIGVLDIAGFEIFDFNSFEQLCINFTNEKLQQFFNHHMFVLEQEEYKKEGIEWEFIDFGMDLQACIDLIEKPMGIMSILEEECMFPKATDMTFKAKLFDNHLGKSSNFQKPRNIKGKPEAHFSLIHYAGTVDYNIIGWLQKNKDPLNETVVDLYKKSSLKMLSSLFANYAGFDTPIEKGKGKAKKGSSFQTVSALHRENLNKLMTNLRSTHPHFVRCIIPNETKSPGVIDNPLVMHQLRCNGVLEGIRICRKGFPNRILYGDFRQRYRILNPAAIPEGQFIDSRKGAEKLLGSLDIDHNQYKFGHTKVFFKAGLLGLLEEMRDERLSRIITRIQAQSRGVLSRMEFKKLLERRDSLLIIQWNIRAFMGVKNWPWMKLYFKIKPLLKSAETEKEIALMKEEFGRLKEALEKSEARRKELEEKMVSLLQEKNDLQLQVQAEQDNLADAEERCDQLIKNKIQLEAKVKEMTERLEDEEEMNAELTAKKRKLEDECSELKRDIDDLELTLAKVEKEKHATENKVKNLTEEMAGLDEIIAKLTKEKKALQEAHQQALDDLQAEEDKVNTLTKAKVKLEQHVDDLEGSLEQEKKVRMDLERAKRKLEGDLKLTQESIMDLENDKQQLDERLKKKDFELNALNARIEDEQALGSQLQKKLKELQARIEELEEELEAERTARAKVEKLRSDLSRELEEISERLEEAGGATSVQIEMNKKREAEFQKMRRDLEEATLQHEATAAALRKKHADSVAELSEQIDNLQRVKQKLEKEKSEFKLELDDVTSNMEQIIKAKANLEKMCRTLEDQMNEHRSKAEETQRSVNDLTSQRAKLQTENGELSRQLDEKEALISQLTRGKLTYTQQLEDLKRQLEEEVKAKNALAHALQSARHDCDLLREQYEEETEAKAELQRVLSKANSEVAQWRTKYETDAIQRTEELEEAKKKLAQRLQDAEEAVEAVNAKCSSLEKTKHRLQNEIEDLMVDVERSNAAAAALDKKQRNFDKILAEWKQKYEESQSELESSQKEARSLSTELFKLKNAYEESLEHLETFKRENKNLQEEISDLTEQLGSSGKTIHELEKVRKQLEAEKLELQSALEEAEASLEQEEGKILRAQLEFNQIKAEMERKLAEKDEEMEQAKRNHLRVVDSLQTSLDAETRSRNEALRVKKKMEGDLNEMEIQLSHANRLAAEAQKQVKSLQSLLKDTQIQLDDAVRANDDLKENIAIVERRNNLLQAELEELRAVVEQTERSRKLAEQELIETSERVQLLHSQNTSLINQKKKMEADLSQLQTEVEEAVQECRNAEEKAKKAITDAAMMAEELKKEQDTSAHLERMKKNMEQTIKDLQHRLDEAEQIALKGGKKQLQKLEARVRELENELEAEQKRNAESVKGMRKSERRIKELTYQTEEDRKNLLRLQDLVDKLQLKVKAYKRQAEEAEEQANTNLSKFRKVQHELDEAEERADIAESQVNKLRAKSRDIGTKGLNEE
T3 sequence (P85100 whole entry partner): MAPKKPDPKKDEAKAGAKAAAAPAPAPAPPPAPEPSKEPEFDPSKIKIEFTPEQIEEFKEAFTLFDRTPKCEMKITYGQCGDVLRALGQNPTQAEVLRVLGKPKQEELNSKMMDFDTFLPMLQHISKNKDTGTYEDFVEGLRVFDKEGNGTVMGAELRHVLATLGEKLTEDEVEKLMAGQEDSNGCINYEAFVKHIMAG
T3 sequence (Q3SZE5 whole entry partner): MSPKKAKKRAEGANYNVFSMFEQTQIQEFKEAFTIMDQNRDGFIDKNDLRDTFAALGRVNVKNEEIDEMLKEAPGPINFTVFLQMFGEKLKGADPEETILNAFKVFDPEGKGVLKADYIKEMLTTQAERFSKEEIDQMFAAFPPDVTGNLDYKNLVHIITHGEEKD
T1 sequence (P10587 84-789 limits assumed): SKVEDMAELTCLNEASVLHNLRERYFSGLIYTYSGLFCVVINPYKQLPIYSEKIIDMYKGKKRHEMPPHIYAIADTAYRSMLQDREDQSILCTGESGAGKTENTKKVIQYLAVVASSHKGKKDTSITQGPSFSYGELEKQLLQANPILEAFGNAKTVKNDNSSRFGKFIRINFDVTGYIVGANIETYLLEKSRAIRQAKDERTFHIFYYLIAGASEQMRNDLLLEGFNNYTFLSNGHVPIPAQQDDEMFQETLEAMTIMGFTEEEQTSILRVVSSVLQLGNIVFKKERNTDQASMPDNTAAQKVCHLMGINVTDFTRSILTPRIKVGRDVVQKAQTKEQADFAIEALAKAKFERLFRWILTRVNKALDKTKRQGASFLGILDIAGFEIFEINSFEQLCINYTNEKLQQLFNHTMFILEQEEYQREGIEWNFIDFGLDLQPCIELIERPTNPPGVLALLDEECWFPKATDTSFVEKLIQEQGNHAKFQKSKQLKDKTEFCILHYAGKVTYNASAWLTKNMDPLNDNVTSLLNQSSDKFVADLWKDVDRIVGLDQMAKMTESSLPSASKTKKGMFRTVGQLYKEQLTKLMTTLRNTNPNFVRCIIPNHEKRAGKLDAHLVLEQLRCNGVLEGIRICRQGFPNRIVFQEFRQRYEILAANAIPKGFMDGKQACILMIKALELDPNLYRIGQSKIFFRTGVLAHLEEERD
T1 sequence (P02607 whole entry partner): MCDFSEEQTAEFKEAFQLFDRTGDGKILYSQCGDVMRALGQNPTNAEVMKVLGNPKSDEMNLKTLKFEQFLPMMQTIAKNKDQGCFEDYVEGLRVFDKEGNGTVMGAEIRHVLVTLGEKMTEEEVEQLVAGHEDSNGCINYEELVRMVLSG
T8 sequence (P11712 whole entry): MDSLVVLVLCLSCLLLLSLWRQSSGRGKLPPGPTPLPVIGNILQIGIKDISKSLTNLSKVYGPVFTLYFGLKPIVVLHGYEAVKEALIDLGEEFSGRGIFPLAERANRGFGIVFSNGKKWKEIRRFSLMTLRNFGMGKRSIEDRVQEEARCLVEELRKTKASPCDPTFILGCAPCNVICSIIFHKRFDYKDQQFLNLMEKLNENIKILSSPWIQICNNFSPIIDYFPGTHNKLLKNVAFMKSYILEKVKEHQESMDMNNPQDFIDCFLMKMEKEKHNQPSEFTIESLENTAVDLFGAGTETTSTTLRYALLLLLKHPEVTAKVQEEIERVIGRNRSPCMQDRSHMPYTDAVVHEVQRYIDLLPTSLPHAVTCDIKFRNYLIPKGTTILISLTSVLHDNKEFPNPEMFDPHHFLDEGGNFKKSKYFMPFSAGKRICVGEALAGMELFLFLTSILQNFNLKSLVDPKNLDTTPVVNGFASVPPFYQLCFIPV

On to `O=C1CCc2ccc(Cn3nc(-c4cnc(Oc5cncc(F)c5)nc4)ccc3=O)cc21` [Compound 124], for which the inhibition at 100 µM at smooth muscle myosin S1 was -12%; on cardiac myosin SII it was 4%. Further, the half-maximal inhibitory concentration (IC50) in data set [1] is above 40000 nM; in data set [2] (setting [5]), below 2500 nM.
In turn, `O=c1ccc(-c2cnc(OCC(F)(F)F)nc2)nn1Cc1ccc2[nH]ncc2c1` [Comparative Example 1, reference compound] registered an AUC(0-t) in data set [3] of 2210 ng·h/mL. The compound also yielded a Cmax in data set [3] of 267 ng/mL. Further, in data set [3], the half-life is 18.9 h. Further, the IC50 against CYP2C19 was 1.85 µM; against CYP3A4, above 30 µM; in data set [1] it was 2500 nM; on CYP1A2, above 30 µM; at CYP2D6 it was 8.81 µM; at CYP2C9, 4.44 µM.
Take `O=c1ccc(-c2cnc(C3CC3)nc2)nn1Cc1ccc2c(c1)CC2` [Compound 92]: the half-maximal inhibitory concentration (IC50) in [1] is above 40000 nM; in data set [2] (setting [5]) it was below 2500 nM; in data set [2] (setting [6]), 200 nM. The inhibition at 100 µM at cardiac myosin SII was 17%.
With `O=c1ccc(-c2cnc(OCC(F)(F)F)nc2)nn1Cc1ccc2c(c1)CC2` [Compound 56], the “Inhibition rate of CK values (sampled 24 h after (last) dose)” value in the data set on B10-Dmd-KO (Mdx) mice was found to be 88.4%. Besides, the Kp at 6 h in data set [4] (6 h) came out at 175. Besides, in data set [4] (24 h), the Kp at 24 h is 316. Besides, the results for the IC50 in data set [2] (setting [5]) and in data set [2] (setting [6]) were below 2500 nM and 340 nM, respectively.
On to `O=C1CCc2ccc(Cn3nc(-c4cnc(C5CC5)nc4)ccc3=O)cc21` [Compound 157], for which the inhibition at 100 µM on smooth muscle myosin S1 was -3%; at cardiac myosin SII, 10%. In addition, the half-maximal inhibitory concentration (IC50) was above 40000 nM in data set [1] and below 2500 nM in data set [2] (setting [5]).
